Entries after “also recorded” stand apart in the source; their conditions may differ.
Columns and labels:
[1] = tested on: acetic acid-depressed locomotion in mice; assay: Acetic acid-depressed locomotor activity; assay type: in vivo, ICR mice; conditions: s.c. pretreatment, 0.6% acetic acid
[2] = tested on: spontaneous locomotor activity in naïve mice; assay: Baseline locomotor activity without acid; assay type: in vivo, ICR mice; conditions: doses used for the pain studies
[3] = tested on: lactic acid-depressed locomotion in mice; assay: Lactic acid-depressed locomotor activity; set-up: species or system ICR mice; conditions: mouse, in vivo
[4] = tested on: formalin test; conditions: only partially effective; cited from earlier work
[5] = tested on: rat models of inflammatory and neuropathic pain; conditions: cited from earlier work
[6] = molecular target: α5-containing GABAA receptors (with β3, γ2L) (Rattus norvegicus, UniProt P18508+P19969, INS375LLRMFSFK); assay type: cell-based; conditions: 0.1 μM modulator, 0.3 μM GABA
[7] = molecular target: α4-containing GABAA receptors (with β3, γ2L) (Rattus norvegicus, UniProt P18508+P28471, INS375LLRMFSFK); assay type: cell-based; conditions: 1 μM modulator, 0.3 μM GABA
[8] = molecular target: α6-containing GABAA receptors (with β3, γ2L) (Rattus norvegicus, UniProt P18508+P30191, INS375LLRMFSFK); assay type: cell-based; conditions: 1 μM modulator, 0.1 μM GABA
[9] = tested on: mice; assay: Pilot study of a larger dose; assay type: in vivo; conditions: 32 mg/kg
[10] = molecular target: α3β3γ2L GABAA receptor (Rattus norvegicus, UniProt P18508+P20236, INS375LLRMFSFK); assay type: cell-based; conditions: for peak response (potentiation of the response to GABA): α3β3γ2L, percentage of the response to GABA alone
[11] = molecular target: α1β3γ2L GABAA receptor (Rattus norvegicus, UniProt P18508+P62813, INS375LLRMFSFK); assay type: cell-based; conditions: for peak response (potentiation of the response to GABA): α1β3γ2L, percentage of the response to GABA alone
[12] = tested on: 0.6% acetic acid-induced writhing in mice; assay: 0.6% acetic acid-induced writhing; assay type: in vivo, ICR mice; conditions: s.c. pretreatment, 25 min observation
[13] = tested on: 0.32% lactic acid-induced writhing in mice; assay type: in vivo, ICR mice; conditions: s.c. pretreatment, 25 min observation
[14] = molecular target: α2β3γ2L GABAA receptor (UniProt P18508+P47869, INS375LLRMFSFK); assay type: cell-based, human; conditions: for peak response (potentiation of the response to GABA): α2β3γ2L, percentage of the response to GABA alone
[15] = tested on: acetic acid-depressed nesting in mice; assay: Acetic acid-depressed nesting; assay type: in vivo, ICR mice; conditions: 60 min nesting period

| SMILES | effect on locomotor activity of acetic acid-treated mice (in words) [1] | effect on locomotor activity of lactic acid-treated mice (in words) [3] | modulation of GABA response at α5-containing receptors (in words) [6] | sedation at a larger dose [9] | EC50 [10] | peak response (potentiation of the response to GABA) [10] | EC50 [11] | peak response (potentiation of the response to GABA) [11] | effect on 0.6% acetic acid-induced writhing (in words) [12] | effect on […] lactic acid-induced writhing (in words) [13] | EC50 [14] | peak response (potentiation of the response to GABA) [14] | effect on the decrease in cleared zones by acetic acid (nesting, in words) [15] | other results |
| --- | --- | --- | --- | --- | --- | --- | --- | --- | --- | --- | --- | --- | --- | --- |
| CC(=O)Nc1ccc(O)cc1 [acetaminophen, reference compound] | dose-dependently increased | dose-dependently increased |  |  |  |  |  |  |  |  |  |  |  | effect on locomotor / spontaneous activity without acid [2]: did not significantly change |
| CC(C)(O)c1ccc2c(c1)ncn2-c1cccc(-c2ccccc2C#N)c1 [NS11394, 3′-[5-(1-hydroxy-1-methyl-ethyl)-benzoimidazol-1-yl]-biphenyl-2-carbonitrile] |  |  |  |  |  |  |  |  |  |  |  |  |  | reduction in the formalin test [4]: 33%; antinociceptive effects in rat models of inflammatory and neuropathic pain [5]: significant antinociceptive effects; sedation at the antinociceptive doses ([5]; rat, same doses): does not produce sedation |
| C#Cc1ccc2c(c1)C(c1ccccn1)=NCc1c(-c3cnco3)ncn1-2 [KRM-II-81, 5-(8-ethynyl-6-(pyridin-2-yl)-4H-benzo[f]imidazo[1,5-a][1,4]diazepin-3-yl) oxazole] | failed to restore | failed to restore | much less sensitive; also recorded: negligible efficacy | marked sedation | 60.9 ± 11.6 nM | 352.2 ± 38.0% | 1730 ± 690 nM | 316.9 ± 38.6% | dose-dependently decreased | decreased | 102 ± 28.5 nM | 350.1 ± 21.5% | failed to significantly attenuate | modulation of GABA response at α4-containing receptors (in words) [7]: negligible efficacy; modulation of GABA response at α6-containing receptors (in words) [8]: negligible efficacy; selectivity on α3 subtype over α1 subtype GABAA receptors ([10]; from EC50 values): 28 fold; selectivity on α2 subtype over α1 subtype GABAA receptors ([14]; from EC50 values): 17 fold |
| C#Cc1ccc2c(c1)C(c1ccccc1F)=NCc1c(-c3cnco3)ncn1-2 [KRM-II-18B, 5-(8-ethynyl-6-(2-fluorophenyl)-4H-benzo[f]imidazo[1,5-a][1,4]diazepin-3-yl) oxazole] | failed to restore | failed to restore | significant efficacy | marked sedation | 169 ± 39.8 nM | 383.0 ± 33.2% | 739 ± 252 nM | 410.6 ± 26.3% | dose-dependently decreased | decreased | 261 ± 116 nM | 320.0 ± 14.3% | failed to significantly attenuate | selectivity among the three subtypes (α1, α2, α3) ([11]; in words): no significant selectivity |

Reference: publication PMC5686453 (ACS chemical neuroscience, 2017)
